In paper PMC12655637, “Design, Synthesis, and Mechanistic Study of Novel Ciprofloxacin/Thiazole Chalcone Hybrids as Potential Anticancer Agents” (Pharmaceuticals, 2025):
Read-outs that look alike come from different tables or passages of the source.

Key:
A498 = experiment: NCI-60 screening, one-dose (10 µM) and five-dose, SRB; format: cell-based; details: Homo sapiens
OVCAR-5 = experiment: as above; format: cell-based, human; details: 10 μM; OVCAR-5, Ovarian Cancer
M14 = experiment: as above; format: cell-based, human; details: Homo sapiens; 10 μM; M14, Melanoma; read-out: Growth percentage
HOP-62 = experiment: as above; format: cell-based, human; details: Homo sapiens, HOP-62, 10 μM; HOP-62, Non-Small-Cell Lung Cancer; read-out: Growth percentage
786−0 = experiment: as above; format: cell-based, human; details: Homo sapiens; 10 μM; 786−0, Renal Cancer; read-out: Growth percentage
SNB-75 = experiment: as above; format: cell-based, human; details: Homo sapiens; 10 μM; SNB-75, CNS Cancer; read-out: Growth percentage
EKVX = experiment: as above; format: cell-based, human; details: Homo sapiens, 10 μM, Non-Small-Cell Lung Cancer, read-out: Growth percentage
K-562 = experiment: as above; format: cell-based, human; details: Homo sapiens, K562, 10 μM; K-562, Leukemia; read-out: Growth percentage
SNB-19 = experiment: as above; format: cell-based; details: Homo sapiens; 10 μM; SNB-19, CNS Cancer; read-out: Growth percentage
UACC-62 = experiment: as above; format: cell-based; details: Homo sapiens
NCI-H522 = experiment: as above; format: cell-based, human; details: Homo sapiens; 10 μM; NCI-H522, Non-Small-Cell Lung Cancer; read-out: Growth percentage
DU-145 = experiment: as above; format: cell-based, human; details: Homo sapiens; 10 μM; DU-145, Prostate Cancer; read-out: Growth percentage
UACC-257 = experiment: as above; format: cell-based, human; details: Homo sapiens; 10 μM; UACC-257, Melanoma; read-out: Growth percentage
SK-MEL-28 = experiment: as above; format: cell-based, human; details: Homo sapiens; 10 μM; SK-MEL-28, Melanoma; read-out: Growth percentage
HOP-92 = experiment: as above; format: cell-based, human; details: Homo sapiens; 10 μM; HOP-92, Non-Small-Cell Lung Cancer; read-out: Growth percentage
MOLT-4 = experiment: as above; format: cell-based, human; details: Homo sapiens; 10 μM; MOLT-4, Leukemia; read-out: Growth percentage
SF-539 = experiment: as above; format: cell-based, human; details: Homo sapiens, SF-539, 10 μM; SF-539, CNS Cancer; read-out: Growth percentage
SF-295 = experiment: as above; format: cell-based, human; details: Homo sapiens; 10 μM; SF-295, CNS Cancer; read-out: Growth percentage
OVCAR-8 = experiment: as above; format: cell-based, human; details: Homo sapiens; 10 μM; OVCAR-8, Ovarian Cancer; read-out: Growth percentage
MCF7 = experiment: as above; format: cell-based, human; details: Homo sapiens, MCF7, 10 μM; MCF7, Breast Cancer; read-out: Growth percentage
NCI/ADR-RES = experiment: as above; format: cell-based, human; details: Homo sapiens, 10 μM, Ovarian Cancer, read-out: Growth percentage
CCRF-CEM = experiment: as above; format: cell-based, human; details: Homo sapiens, 10 μM, Leukemia, read-out: Growth percentage
MDA-MB-435 = experiment: as above; format: cell-based; details: Homo sapiens, MDA-MB-435, read-out: Growth percentage, 10 μM; MDA-MB-435, Melanoma
[1] = test system: 60 human cancer cell lines; experiment: NCI-60 screening, full panel (mean growth, MID a, ranges over all lines); details: Homo sapiens, read-out: Mean growth percentage
U251 = experiment: NCI-60 screening, one-dose (10 µM) and five-dose, SRB; format: cell-based, human; details: Homo sapiens, U-251; 10 μM; U251, CNS Cancer; read-out: Growth percentage
OVCAR-4 = experiment: as above; format: cell-based, human; details: Homo sapiens; 10 μM; OVCAR-4, Ovarian Cancer; read-out: Growth percentage
SR = experiment: as above; format: cell-based, human; details: 10 μM, Leukemia
T-47D = experiment: as above; format: cell-based, human; details: 10 μM, Breast Cancer
BT-549 = experiment: as above; format: cell-based; details: Homo sapiens
SF-268 = experiment: as above; format: cell-based, human; details: Homo sapiens; 10 μM; SF-268, CNS Cancer; read-out: Growth percentage
HCT-116 = experiment: as above; format: cell-based, human; details: Homo sapiens, HCT-116, 10 μM; HCT-116, Colon Cancer; read-out: Growth percentage
[2] = 10 μM, UACC-62, Melanoma, read-out: Growth percentage
[3] = 10 μM, BT-549, Breast Cancer, read-out: Growth percentage
[4] = A498, 10 μM, A498, Renal Cancer, read-out: Growth percentage

Compound | Growth percentage (OVCAR-5) [%] | activity at 10 µM (M14) [%] | activity at 10 µM (HOP-62) [%] | activity at 10 µM (786−0) [%] | activity at 10 µM (SNB-75) [%] | activity at 10 µM (EKVX) [%] | activity at 10 µM (K-562) [%] | activity at 10 µM (SNB-19) [%] | activity at 10 µM (NCI-H522) [%] | activity at 10 µM (DU-145) [%] | activity at 10 µM (UACC-257) [%] | activity at 10 µM (SK-MEL-28) [%] | activity at 10 µM (HOP-92) [%] | activity at 10 µM (MOLT-4) [%] | activity at 10 µM (SF-539) [%] | activity at 10 µM (SF-295) [%] | activity at 10 µM (OVCAR-8) [%] | activity at 10 µM (MCF7) [%] | activity at 10 µM (NCI/ADR-RES) [%] | activity at 10 µM (CCRF-CEM) [%] | other results
Cc1nc(SCC(=O)N2CCN(c3cc4c(cc3F)c(=O)c(C(=O)O)cn4C3CC3)CC2)sc1C(=O)/C=C/c1ccc(F)cc1 [Compound 4e, (E)-1-Cyclopropyl-6-fluoro-7-(4-(2-((5-(3-(4-fluorophenyl)acryloyl)-4-methylthiazol-2-yl)thio)acetyl)piperazin-1-yl)-4-oxo-1,4-dihydroquinoline-3-carboxylic Acid] | 119.2 | 97.8 | 108 | 88.3 | 103 | 108 | 98.2 | 101 | 98.2 | 105 | 106 | 116 | 98 | 105 | 99 | 98.8 | 105 | 70.6 | 104 | 104 | activity at 10 µM (A498; A498, read-out: Growth percentage): 106%; activity at 10 µM (UACC-62; [2]): 99.6%; activity at 10 µM (MDA-MB-435): 104%; activity at 10 µM [1]: 100%; activity at 10 µM (U251): 114%; activity at 10 µM (OVCAR-4): 102%; Growth percentage (SR): 55.6%; Growth percentage (T-47D): 95.6%; activity at 10 µM (BT-549; [3]): 102%; activity at 10 µM (SF-268): 111%; activity at 10 µM (HCT-116): 51.2%
Cc1nc(SCC(=O)N2CCN(c3cc4c(cc3F)c(=O)c(C(=O)O)cn4C3CC3)CC2)sc1C(=O)/C=C/c1ccc(Br)cc1 [Compound 4f, (E)-7-(4-(2-((5-(3-(4-Bromophenyl)acryloyl)-4-methylthiazol-2-yl)thio)acetyl)piperazin-1-yl)-1-cyclopropyl-6-fluoro-4-oxo-1,4-dihydroquinoline-3-carboxylic Acid] | 110.6 | 108 | 94.3 | 93.6 | 65.7 | 107 | 96.2 | 93.8 | 105 | 113 | 118 | 114 | 115 | 96.2 | 89.9 | 108 | 75 | 70.8 | 107 | 106 | activity at 10 µM (A498; [4]): 114%; activity at 10 µM (UACC-62; [2]): 105%; activity at 10 µM (MDA-MB-435): 107%; activity at 10 µM [1]: 102%; activity at 10 µM (U251): 98.4%; activity at 10 µM (OVCAR-4): 102%; Growth percentage (SR): 56.5%; Growth percentage (T-47D): 89.3%; activity at 10 µM (BT-549; BT-549, read-out: Growth percentage): 107%; activity at 10 µM (SF-268): 116%; activity at 10 µM (HCT-116): 94.3%
Cc1nc(SCC(=O)N2CCN(c3cc4c(cc3F)c(=O)c(C(=O)O)cn4C3CC3)CC2)sc1C(=O)/C=C/c1cccc([N+](=O)[O-])c1 [Compound 4g, (E)-1-Cyclopropyl-6-fluoro-7-(4-(2-((4-methyl-5-(3-(3-nitrophenyl)acryloyl)thiazol-2-yl)thio)acetyl)piperazin-1-yl)-4-oxo-1,4-dihydroquinoline-3-carboxylic Acid] | 119.9 | 83.3 | 94.5 | 71.2 | 95.7 | 111 | 29.3 | 87.7 | 72.3 | 108 | 99.8 | 80.8 | 68.4 | 86.4 | 64.5 | 110 | 69.2 | 11.6 | 102 | 74.5 | activity at 10 µM (A498; [4]): 129%; activity at 10 µM (UACC-62; UACC-62, read-out: Growth percentage): 71.9%; activity at 10 µM (MDA-MB-435): 71.9%; activity at 10 µM [1]: 80%; activity at 10 µM (U251): 50.7%; activity at 10 µM (OVCAR-4): 103%; Growth percentage (SR): 11.6%; Growth percentage (T-47D): 84.1%; activity at 10 µM (BT-549; [3]): 66.9%; activity at 10 µM (SF-268): 172%; activity at 10 µM (HCT-116): -73.5%
